Data from ChEMBL document CHEMBL1142603, “Manzamine B and E and ircinal A related alkaloids from an Indonesian Acanthostrongylophora sponge and their activity against infectious, tropical parasitic, and Alzheimer's diseases” (J Nat Prod, 2006).
Converted amounts (≈) assume the structure as drawn. The source made the active and inactive calls. The calls are words filed in the database; no cut-off is given here.

What was measured:
[1] = Toxicity against medaka eggs assessed as eggs failing to hatch up to 10.6 uM after 11 days relative to control; set-up: species or system Egg; conditions: oryzias latipes, 264 h
[2] = target: Glycogen synthase kinase-3 beta (Homo sapiens) (UniProt P49841); experiment: Inhibition of human recombinant GSK3-beta assessed as incorporation of [33P]gammaATP into G2S peptide at 25 uM
Glycogen synthase kinase-3 beta (Homo sapiens), sequence (P49841 whole entry, looked up): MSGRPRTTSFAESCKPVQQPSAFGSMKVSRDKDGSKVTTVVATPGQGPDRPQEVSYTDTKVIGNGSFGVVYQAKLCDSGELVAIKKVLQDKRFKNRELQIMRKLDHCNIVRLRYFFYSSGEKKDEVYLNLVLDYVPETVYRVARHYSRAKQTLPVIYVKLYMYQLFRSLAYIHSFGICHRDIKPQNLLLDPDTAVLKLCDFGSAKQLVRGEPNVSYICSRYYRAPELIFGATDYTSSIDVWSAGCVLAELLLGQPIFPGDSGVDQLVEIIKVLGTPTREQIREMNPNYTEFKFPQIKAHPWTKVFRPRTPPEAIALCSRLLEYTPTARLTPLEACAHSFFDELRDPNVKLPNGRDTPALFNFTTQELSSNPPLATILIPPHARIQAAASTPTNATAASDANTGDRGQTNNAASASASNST

[3] = Toxicity against medaka eggs assessed as eggs failing to hatch after 11 days; set-up: species or system Egg; conditions: oryzias latipes, 264 h
[4] = Toxicity against medaka fry after 96 hrs; assay type: organism-based; conditions: oryzias latipes, in vivo; read-out: LD50
[5] = Selectivity ratio of LD50 for medaka fry to ED50 for medaka eggs; conditions: oryzias latipes
[6] = tested on: Mycobacterium tuberculosis; experiment: Antituberculosis activity against Mycobacterium tuberculosis H37Rv at 64 ug/mL after 24 hrs by alamar blue assay; assay type: functional, organism-based
Plasmodium falciparum [7] = experiment: Antimalarial activity after 72 hrs against chloroquine-sensitive Plasmodium falciparum D6 in erythrocytes by LDH reporter assay; assay type: functional, organism-based; conditions: D6, 72 h
Plasmodium falciparum [8] = experiment: Antimalarial activity after 72 hrs against chloroquine-resistant Plasmodium falciparum W2 in erythrocytes at […] by LDH reporter assay; assay type: functional, organism-based
Leishmania donovani = experiment: Antileishmanial activity against Leishmania donovani after 72 hrs by alamar blue assay; assay type: functional, organism-based
Vero [9] = experiment: Cytotoxicity against african green monkey Vero cells at 4.76 ug/mL by neutral red assay; assay type: cell-based; conditions: chlorocebus sabaeus
Staphylococcus aureus [10] = experiment: Antibacterial activity against Staphylococcus aureus; assay type: functional, organism-based
Staphylococcus aureus [11] = experiment: Antibacterial activity against methicillin-resistant Staphylococcus aureus; assay type: functional, organism-based
Cryptococcus neoformans = experiment: Antifungal activity against Cryptococcus neoformans; assay type: functional, organism-based
[12] = tested on: Mycobacterium intracellulare; experiment: Antibacterial activity against Mycobacterium intracellular by alamar blue assay; assay type: functional, organism-based
[13] = target: T1, Acetylcholinesterase (Bos taurus) (UniProt P23795); experiment: Inhibition of bovine AChE
T1 sequence (whole entry): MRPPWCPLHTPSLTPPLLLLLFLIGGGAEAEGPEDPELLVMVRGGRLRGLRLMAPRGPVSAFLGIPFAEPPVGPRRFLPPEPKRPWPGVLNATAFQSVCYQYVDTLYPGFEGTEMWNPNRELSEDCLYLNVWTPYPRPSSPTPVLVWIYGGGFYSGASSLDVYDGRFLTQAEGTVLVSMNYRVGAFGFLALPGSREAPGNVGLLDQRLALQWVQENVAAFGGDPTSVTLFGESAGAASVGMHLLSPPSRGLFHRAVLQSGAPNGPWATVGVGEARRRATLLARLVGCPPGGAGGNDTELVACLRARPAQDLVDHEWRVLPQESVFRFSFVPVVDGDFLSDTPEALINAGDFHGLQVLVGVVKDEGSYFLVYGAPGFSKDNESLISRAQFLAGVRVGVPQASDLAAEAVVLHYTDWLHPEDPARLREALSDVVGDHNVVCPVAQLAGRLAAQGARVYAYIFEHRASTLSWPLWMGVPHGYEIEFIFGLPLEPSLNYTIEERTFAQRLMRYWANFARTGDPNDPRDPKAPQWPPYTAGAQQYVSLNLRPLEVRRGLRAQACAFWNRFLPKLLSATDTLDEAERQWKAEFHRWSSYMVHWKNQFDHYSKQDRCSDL

[14] = target: Beta-secretase 1 (Homo sapiens) (UniProt P56817); experiment: Inhibition of human recombinant BACE1 by FRET-based assay
Beta-secretase 1 (Homo sapiens), sequence (P56817 whole entry): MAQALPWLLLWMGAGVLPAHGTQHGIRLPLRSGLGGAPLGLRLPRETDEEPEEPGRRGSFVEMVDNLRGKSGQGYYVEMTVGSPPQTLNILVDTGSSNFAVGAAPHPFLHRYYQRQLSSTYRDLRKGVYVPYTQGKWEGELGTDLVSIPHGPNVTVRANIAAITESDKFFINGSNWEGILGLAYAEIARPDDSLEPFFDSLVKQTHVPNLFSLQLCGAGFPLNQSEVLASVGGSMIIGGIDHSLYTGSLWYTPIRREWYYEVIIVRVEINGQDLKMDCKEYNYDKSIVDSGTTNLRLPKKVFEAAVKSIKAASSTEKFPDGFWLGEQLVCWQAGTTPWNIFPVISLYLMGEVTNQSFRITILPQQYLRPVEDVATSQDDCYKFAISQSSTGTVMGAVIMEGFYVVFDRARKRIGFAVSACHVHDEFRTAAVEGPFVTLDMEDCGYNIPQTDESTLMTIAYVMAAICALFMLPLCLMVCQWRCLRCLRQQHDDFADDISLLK

[15] = tested on: Voltage-gated calcium channel; experiment: Blocking of calcium channel in human SH-SY5Y cells assessed as inhibition of KCL depolarization-induced cytosolic calcium increase at 1 uM; assay type: cell-based
[16] = target: Glycogen synthase kinase-3 beta (Homo sapiens) (UniProt P49841); experiment: Inhibition of GSK3-beta in human SH-SY5Y cells assessed as inhibition of tau phosphorylation at Ser396 at 5 uM after 24 hrs by ELISA sandwich method; assay type: cell-based
SH-SY5Y = experiment: Cytotoxicity against human SH-SY5Y cells at 5 uM; assay type: cell-based
[17] = tested on: Mycobacterium tuberculosis; experiment: Antituberculosis activity against Mycobacterium tuberculosis H37Rv after 24 hrs by alamar blue assay; assay type: functional
Plasmodium falciparum [18] = experiment: Antimalarial activity after 72 hrs against chloroquine-resistant Plasmodium falciparum W2 in erythrocytes by LDH reporter assay; assay type: functional, organism-based; conditions: W2, 72 h
Vero [19] = experiment: Cytotoxicity against african green monkey Vero cells by neutral red assay; assay type: cell-based; conditions: chlorocebus sabaeus
[20] = tested on: Human immunodeficiency virus 1; experiment: Antiviral activity against HIV1 3B assessed as reverse transcriptase activity by enzyme immunoassay; assay type: functional, organism-based; conditions: Human immunodeficiency virus 1, 3B

With `CCN(CC)CCCC(C)Nc1ccnc2cc(Cl)ccc12` (configuration not stated) [CHLOROQUINE] the Activity [1] was “Not Active”.
In the case of `O[C@@H]1CCCN2CC[C@@H]1O[C@@]13CC[C@@H](OC[C@]45CN6CCCC/C=C\CC[C@](O)(C=C(c7nccc8c7[nH]c7ccccc78)[C@@H]4CC6)[C@H]25)[C@@H](O)CCN1[C@@H]1[C@]2(CN4CCCC/C=C\CC[C@]1(O)C=C(c1nccc5c1[nH]c1ccccc15)[C@@H]2CC4)C3` [NEO-KAULUAMINE], the inhibition [2] is reported as 82%, the ED50 [3] is reported as 2.45 µM and the LC50 at 96 h [4] is reported as 0.82 µM. It also gave a selectivity ratio [5] of 3.
In the case of `C1=C(c2nccc3c2[nH]c2ccccc23)[C@@H]2CCN3CCCC/C=C\CC[C@]14O[C@@]15/C=C\CCCCN1[C@@H]4[C@]2(C3)C5` [12,34-OXAMANZAMINE A], the Activity [6] is reported as “inactive”, the IC50 (Plasmodium falciparum [7]) is reported as 4.76 mg/L (≈ 8.71 µM) and the Activity (Plasmodium falciparum [8]) is reported as “inactive”. The IC50 (Leishmania donovani) was 14 mg/L (≈ 25.6 µM), the IC90 (Leishmania donovani) was 40 mg/L (≈ 73.2 µM) and the Activity (Vero [9]) was “Non-toxic”. The Activity (Staphylococcus aureus [10]) was “inactive”, the Activity (Staphylococcus aureus [11]) was “inactive” and the Activity (Cryptococcus neoformans) was “inactive”. The Activity [12] was “inactive”, the Activity [13] was “inactive” and the Activity [14] was “inactive”.
In the case of `O[C@]12C=C(c3nccc4c3[nH]c3ccccc34)[C@@H]3CCN(CCCC/C=C\CC1)C[C@@]31C[C@@H]3/C=C\CCCCN3[C@H]12` [MANZAMINE A], the “inhibition (INH)” value [15] is reported as 20%, the inhibition [2] is reported as 73.2% and the Activity [16] is reported as “Active”. The Activity (SH-SY5Y) was “Non-toxic”, the ED50 [3] was 0.17 µM and the LC50 at 96 h [4] was 0.074 µM. The selectivity ratio [5] was 2.3, the MIC [17] was 1.5 mg/L (≈ 2.73 µM) and the IC50 (Plasmodium falciparum [7]) was 0.0045 mg/L (≈ 0.0082 µM). It also gave an IC50 (Plasmodium falciparum [18]) of 0.008 mg/L (≈ 0.0146 µM), an IC50 (Leishmania donovani) of 0.9 mg/L (≈ 1.64 µM) and an IC90 (Leishmania donovani) of 1.8 mg/L (≈ 3.28 µM). The IC50 (Vero [19]) was 1.2 mg/L (≈ 2.19 µM), the IC50 (Staphylococcus aureus [10]) was 0.5 mg/L (≈ 0.911 µM) and the IC50 (Staphylococcus aureus [11]) was 0.7 mg/L (≈ 1.28 µM). It also gave an IC50 (Cryptococcus neoformans) of 3 mg/L (≈ 5.47 µM), an IC50 [12] of 0.35 mg/L (≈ 0.638 µM) and an IC50 [20] of 4.2 mg/L (≈ 7.65 µM). The Activity [13] was “inactive” and the Activity [14] was “inactive”.
